Reference: PMC2746281 (PLoS ONE, 2009)

Assays:
[1] = target: Insulin-like growth factor-I receptor (Homo sapiens, UniProt P08069); experiment: Recombinant kinase screen (Proqinase), IGF-I receptor; assay type: biochemical; conditions: recombinant human enzyme; single experiment, kinase screen by Proqinase
Protocol: (§1) Full details for the generation of recombinant human KIT intracellular domain and other protein kinases (including Lyn, platelet derived growth factor receptor β, epidermal growth factor receptor, fibroblast growth factor receptor 1, Src, HCK, PYK, FES, Btk, Bmx, c-Ret, c-Fms, Syk, and c-Met) are provided in the Supplemental Methods (see Supporting Information; Methods S1). Experiments on ABL1, Akt1, protein kinase C-α, insulin-like growth factor receptor 1, and Pim1 were carried out by Proqinase (Germany). All other recombinant protein kinases were performed in-house using an enzyme-linked immunoassay; experimental details are provided in the Supplemental Methods (see Supporting Information; Methods S1).

c-Ret = target: T1, c-Ret (Homo sapiens, UniProt P07949); experiment: Recombinant kinase ELISA assay, c-Ret; assay type: biochemical; conditions: recombinant human enzyme; ELISA-based assay, poly(Glu,Tyr 4:1) substrate
T1 construct: c-Ret (713–1114; BC004257); 6xHN (N); made in house; host or cells: baculovirus, Sf9 insect cells
T1 sequence (P07949 713-1072 isoform P07949-2): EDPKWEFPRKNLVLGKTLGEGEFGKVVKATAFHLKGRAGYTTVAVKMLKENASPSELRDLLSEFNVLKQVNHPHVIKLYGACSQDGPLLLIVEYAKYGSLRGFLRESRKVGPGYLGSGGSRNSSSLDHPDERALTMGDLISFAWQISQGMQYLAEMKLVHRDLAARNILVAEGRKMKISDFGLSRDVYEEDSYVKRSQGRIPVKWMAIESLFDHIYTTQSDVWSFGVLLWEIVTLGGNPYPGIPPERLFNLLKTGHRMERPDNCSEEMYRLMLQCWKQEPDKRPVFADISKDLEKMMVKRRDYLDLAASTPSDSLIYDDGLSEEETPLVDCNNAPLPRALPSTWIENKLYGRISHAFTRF
Protocol: as §1
(§2) The sequences encoding PDGF receptor β (residues 554–1106; GenBank accession no. BC032224), Lyn B (2–583; accession no. BC059394), fibroblast growth factor receptor 1 (572–959; accession no. BC018128), Src (2–536; accession no. BC011566), Btk (2–659; accession no. BC109079), Bmx (2–675; accession no. BC016652), c-Ret (713–1114; accession no. BC004257), c-Fms (538–972; BC047531), Syk (2–612; BC011399), Hck (2-526; accession no. BC014435), Fes (2-822; accession no. BC035357), PYK2 (2-1006; accession no. BC042599) and c-Met (949–1398; accession no. lifeseq3489592) were amplified by PCR from IMAGE cDNA clones purchased from Openbiosystems. […]

Src = target: T2, Src (Homo sapiens, UniProt P12931); experiment: Recombinant kinase ELISA assay, Src; assay type: biochemical; conditions: recombinant human enzyme; ELISA-based assay, poly(Glu,Tyr 4:1) substrate
T2 construct: Src (2–536; BC011566); 6xHN (N); made in house; host or cells: baculovirus, Sf9 insect cells
T2 sequence (P12931 2-536): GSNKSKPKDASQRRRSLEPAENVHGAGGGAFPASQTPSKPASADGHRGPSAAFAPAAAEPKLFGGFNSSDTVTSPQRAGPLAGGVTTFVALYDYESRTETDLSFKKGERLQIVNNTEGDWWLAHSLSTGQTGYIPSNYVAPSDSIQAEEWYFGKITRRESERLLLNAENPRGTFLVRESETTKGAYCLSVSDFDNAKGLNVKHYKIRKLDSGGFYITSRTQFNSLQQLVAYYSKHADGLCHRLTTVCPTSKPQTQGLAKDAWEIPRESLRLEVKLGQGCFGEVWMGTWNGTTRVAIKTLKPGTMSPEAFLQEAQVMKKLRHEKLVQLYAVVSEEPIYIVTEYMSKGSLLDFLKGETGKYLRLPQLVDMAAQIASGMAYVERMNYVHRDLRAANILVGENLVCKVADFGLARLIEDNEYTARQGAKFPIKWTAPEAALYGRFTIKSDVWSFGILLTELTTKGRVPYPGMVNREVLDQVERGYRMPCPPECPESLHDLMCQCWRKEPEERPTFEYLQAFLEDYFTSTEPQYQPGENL
Protocol: as §1
A 96-well microtitre plate (Immulon 2HB; ThermoLifeScience, Finland) was coated overnight with 0.25 mg/ml poly(Glu,Tyr 4:1), rinsed twice with 250 µl of washing buffer (10 mM phosphate-buffered saline [pH 7.4] and 0.05% Tween 20) and dried for 2 hours at room temperature. […] Reactions were initiated upon introduction of the enzyme and terminated with the addition of one reaction volume (50 μl) of 100 mM EDTA per 5 M urea mix. […] The final reaction product was quantified by spectrophotometry at 450 nm.

Btk = target: T3, Btk (Homo sapiens, UniProt Q06187); experiment: Recombinant kinase ELISA assay, Btk; assay type: biochemical; conditions: recombinant human enzyme; ELISA-based assay, poly(Glu,Tyr 4:1) substrate
T3 construct: Btk (2–659; BC109079); 6xHN (N); made in house; host or cells: baculovirus, Sf9 insect cells
Protocol: as §1, §2

[2] = target: Fibroblast growth factor receptor 3 (Homo sapiens, UniProt P22607); experiment: Ba/F3 cell proliferation (WST-1), FGFR3; conditions: Ba/F3 cells expressing the enzyme, read-out: Cell-based assay IC50, Fibroblast growth factor receptor 3
Sequence of Fibroblast growth factor receptor 3 (P22607 23-806): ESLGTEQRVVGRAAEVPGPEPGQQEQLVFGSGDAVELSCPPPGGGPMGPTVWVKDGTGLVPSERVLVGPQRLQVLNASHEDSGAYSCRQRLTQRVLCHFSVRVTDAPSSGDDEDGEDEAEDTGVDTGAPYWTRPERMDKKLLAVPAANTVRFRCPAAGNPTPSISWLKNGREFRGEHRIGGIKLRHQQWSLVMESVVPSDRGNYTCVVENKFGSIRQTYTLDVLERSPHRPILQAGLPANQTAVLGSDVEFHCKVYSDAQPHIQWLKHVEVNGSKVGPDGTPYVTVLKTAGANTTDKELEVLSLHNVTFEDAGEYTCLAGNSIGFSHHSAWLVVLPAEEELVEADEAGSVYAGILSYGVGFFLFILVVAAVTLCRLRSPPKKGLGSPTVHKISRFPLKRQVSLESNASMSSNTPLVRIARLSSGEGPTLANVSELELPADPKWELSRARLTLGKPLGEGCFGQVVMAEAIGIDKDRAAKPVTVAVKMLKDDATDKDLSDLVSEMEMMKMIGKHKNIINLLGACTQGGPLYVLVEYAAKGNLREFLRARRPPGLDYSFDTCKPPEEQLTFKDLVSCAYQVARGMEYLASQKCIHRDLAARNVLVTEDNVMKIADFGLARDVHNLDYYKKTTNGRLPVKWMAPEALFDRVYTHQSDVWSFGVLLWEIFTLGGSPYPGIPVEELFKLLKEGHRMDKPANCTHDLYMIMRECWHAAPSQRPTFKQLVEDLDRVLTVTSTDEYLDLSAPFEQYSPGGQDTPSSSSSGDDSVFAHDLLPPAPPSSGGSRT

Jak3 = target: T4, Jak3 (Homo sapiens, UniProt P52333); experiment: Ba/F3 cell proliferation (WST-1), Jak3; conditions: Ba/F3 cells expressing the enzyme, read-out: Cell-based assay IC50, Jak3
T4 construct: expressed in transfected cells; host or cells: Ba/F3

FMA3 cells = experiment: Mastocytoma cell line proliferation (WST-1), FMA3; assay type: cell-based, murine; conditions: Mus musculus, 48 h; 2 days; KIT juxtamembrane mutation
Protocol: (B) western blotting analysis of HMC-1α155 tyrosine phosphorylation. […] (D) Western blotting analysis of BMMC tyrosine phosphorylation. Cell proliferation was assessed by WST-1 colorimetric assay. […] MW = molecular weight.

PDGFRβ = PDGFRβ (Homo sapiens, UniProt P09619); experiment: Ba/F3 cell proliferation (WST-1), PDGFRβ; parameters: expressed in transfected cells; host or cells: Ba/F3 (general description of the cell system; not repeated for this kinase); conditions: Ba/F3 cells expressing the enzyme, read-out: Cell-based assay IC50, PDGFRβ
Sequence of PDGFRβ (P09619 33-1106): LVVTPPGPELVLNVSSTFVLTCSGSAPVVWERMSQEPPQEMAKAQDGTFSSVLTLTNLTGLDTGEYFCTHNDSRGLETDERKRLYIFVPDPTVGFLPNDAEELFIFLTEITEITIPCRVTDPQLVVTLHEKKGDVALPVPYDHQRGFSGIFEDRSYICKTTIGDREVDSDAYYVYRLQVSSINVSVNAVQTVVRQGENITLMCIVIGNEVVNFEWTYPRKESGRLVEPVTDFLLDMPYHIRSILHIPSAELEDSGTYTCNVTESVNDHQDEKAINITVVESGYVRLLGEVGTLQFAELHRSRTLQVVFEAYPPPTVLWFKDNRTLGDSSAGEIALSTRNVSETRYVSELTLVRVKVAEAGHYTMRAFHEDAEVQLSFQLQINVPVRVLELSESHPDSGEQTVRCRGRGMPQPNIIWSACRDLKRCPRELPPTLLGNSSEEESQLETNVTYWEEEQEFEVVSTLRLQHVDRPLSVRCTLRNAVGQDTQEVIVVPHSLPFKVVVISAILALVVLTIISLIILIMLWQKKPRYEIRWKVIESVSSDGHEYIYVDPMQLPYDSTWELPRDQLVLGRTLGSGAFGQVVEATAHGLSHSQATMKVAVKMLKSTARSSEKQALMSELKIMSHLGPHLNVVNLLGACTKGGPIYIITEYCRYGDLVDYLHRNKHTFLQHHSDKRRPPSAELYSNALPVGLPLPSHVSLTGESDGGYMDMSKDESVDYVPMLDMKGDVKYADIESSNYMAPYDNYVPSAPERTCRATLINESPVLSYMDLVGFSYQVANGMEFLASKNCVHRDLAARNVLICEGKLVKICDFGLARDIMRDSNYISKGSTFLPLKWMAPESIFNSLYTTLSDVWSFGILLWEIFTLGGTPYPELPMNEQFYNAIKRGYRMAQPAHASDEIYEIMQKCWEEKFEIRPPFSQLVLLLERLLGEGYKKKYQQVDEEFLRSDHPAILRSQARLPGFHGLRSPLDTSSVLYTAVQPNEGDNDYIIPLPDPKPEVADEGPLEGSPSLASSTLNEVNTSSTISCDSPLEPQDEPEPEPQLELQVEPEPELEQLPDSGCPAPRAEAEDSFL

[3] = target: Fibroblast growth factor receptor 1 (Homo sapiens, UniProt P11362); experiment: Recombinant kinase ELISA assay, FGFR1; assay type: biochemical; parameters: fibroblast growth factor receptor 1 (572–959; BC018128); 6xHN (N); made in house; host or cells: baculovirus, Sf9 insect cells; conditions: recombinant human enzyme; ELISA-based assay, poly(Glu,Tyr 4:1) substrate
Sequence of Fibroblast growth factor receptor 1 (P11362 434-822 limits assumed): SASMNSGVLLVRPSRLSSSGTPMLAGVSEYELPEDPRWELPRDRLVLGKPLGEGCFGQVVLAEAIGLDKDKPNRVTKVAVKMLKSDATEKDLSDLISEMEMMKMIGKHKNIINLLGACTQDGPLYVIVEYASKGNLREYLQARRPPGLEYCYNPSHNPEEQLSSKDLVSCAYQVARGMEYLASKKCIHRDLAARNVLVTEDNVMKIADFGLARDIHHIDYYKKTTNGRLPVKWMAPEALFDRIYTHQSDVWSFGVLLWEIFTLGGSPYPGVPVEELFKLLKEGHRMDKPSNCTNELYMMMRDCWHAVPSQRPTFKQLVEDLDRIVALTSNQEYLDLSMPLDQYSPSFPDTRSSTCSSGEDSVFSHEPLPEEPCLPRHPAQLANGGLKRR
Protocol: as §1, §2

Sequence of Insulin-like growth factor-I receptor (P08069 31-1367): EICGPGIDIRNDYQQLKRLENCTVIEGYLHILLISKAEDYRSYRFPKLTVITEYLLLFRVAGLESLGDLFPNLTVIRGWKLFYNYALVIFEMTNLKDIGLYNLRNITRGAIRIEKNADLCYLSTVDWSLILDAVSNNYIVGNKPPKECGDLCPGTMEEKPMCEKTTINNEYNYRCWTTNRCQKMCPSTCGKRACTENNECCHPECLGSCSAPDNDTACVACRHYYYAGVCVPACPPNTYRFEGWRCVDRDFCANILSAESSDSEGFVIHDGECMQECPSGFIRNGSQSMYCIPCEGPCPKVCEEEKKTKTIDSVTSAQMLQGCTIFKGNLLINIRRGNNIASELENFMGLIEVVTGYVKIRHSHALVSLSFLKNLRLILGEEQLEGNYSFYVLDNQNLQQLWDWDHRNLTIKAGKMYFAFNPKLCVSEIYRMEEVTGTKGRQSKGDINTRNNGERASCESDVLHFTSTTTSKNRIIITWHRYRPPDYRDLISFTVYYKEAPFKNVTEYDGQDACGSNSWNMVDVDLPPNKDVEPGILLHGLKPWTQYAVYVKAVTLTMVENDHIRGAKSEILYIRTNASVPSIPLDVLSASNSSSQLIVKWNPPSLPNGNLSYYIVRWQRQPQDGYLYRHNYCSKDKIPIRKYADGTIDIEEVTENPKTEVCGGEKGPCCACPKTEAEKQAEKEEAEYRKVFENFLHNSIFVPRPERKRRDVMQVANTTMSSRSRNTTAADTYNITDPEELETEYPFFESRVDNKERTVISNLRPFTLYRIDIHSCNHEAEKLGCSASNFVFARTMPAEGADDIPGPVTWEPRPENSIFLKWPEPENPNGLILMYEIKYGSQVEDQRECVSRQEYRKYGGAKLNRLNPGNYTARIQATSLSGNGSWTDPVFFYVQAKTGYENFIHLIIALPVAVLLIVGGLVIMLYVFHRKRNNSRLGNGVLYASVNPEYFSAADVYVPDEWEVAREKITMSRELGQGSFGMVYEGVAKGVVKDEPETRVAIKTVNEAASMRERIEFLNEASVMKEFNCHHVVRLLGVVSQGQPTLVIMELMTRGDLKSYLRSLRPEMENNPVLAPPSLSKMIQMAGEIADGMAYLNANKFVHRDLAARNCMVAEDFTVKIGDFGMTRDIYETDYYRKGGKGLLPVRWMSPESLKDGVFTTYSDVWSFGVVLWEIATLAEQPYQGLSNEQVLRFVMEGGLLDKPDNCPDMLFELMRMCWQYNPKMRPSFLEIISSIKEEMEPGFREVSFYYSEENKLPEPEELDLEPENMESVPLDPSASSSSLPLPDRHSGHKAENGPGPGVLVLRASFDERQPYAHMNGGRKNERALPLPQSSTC

CS(=O)(=O)O.CS(=O)(=O)O.Cc1ccc(NC(=O)c2ccc(CN3CCN(C)CC3)cc2)cc1Nc1nc(-c2cccnc2)cs1 [masitinib, 4-(4-methylpiperazin-1-ylmethyl)-N-[4-methyl-3-(4-pyridin-3ylthiazol-2-ylamino)phenyl]benzamide-mesylate methane sulfonic acid salt]
IC50 [1]: > 10 µM
IC50 (c-Ret): > 10 µM
IC50 (Src): 1.87 ± 0.31 µM
IC50 (Btk): > 10 µM
IC50 [2]: 5.5 ± 2.8 µM
IC50 (Jak3): 10 ± 0.5 µM
IC50 (FMA3 cells): ~0.03 µM
IC50 (PDGFRβ): 0.05 ± 0.02 µM
IC50 [3]: > 10 µM
